From patent publication US9388215B2, “Compositions and methods of using islet neogenesis peptides and analogs thereof” (SHENZHEN HIGHTIDE BIOPHARMACEUTICAL, LTD., priority 2013, dated 2016)

Assays:
[1] = Peptide stability in culture medium (F-12K, 37° C., HPLC); type: physicochemical; conditions: F-12K medium, 0.25 mg/mL, 0-72 hours, FIG. 2, FIG. 11
Method: To determine the stability of peptides in culture medium, a certain amount of selected peptides was accurately weighed and dissolved in distilled water to 5 mg/mL as a stock solution. The stock solution was diluted to 0.25 mg/mL with F-12K medium (Gibco-BRL, Gaithersburg, Md., USA) as working solution. A volume of 100 μL of each working solution was transferred into individual sample vials. The sample vials were incubated in a 37° C. incubator for 0, 24, 48 and 72 hours before being analyzed and quantitated by HPLC. […]

[2] = system: STZ induced diabetic mice; assay: Efficacy in streptozotocin (STZ) induced diabetic mice model; type: in vivo, mouse
Method: After acclimatization in the animal facility for one week, 6-8 weeks old C57BL/6J mice were administered low dose STZ at 40 mg/kg in citrate buffer for 5 consecutive days to establish a T1D animal model. Mice with blood glucose greater than 16.7 mmol/L at 5 days post last STZ injection were included in the study. These mice were then treated with INGAP-PP (Peptide 1) or Peptide 7 at the doses of 5 mg/kg (2.5 mg/kg, bid (twice a day)) or 25 mg/kg (12.5 mg/kg, bid) for 20 days before sacrifices. Two additional groups of diabetic mice were administered either saline or a peptide (Peptide 3) composed of a scrambled sequence of amino acids from Peptide 1 as control groups. Blood glucose and insulin levels were measured, and 20 days post the last dosing of test agents, an oral glucose tolerance test (OGTT) was performed in 6 hour fasted animals to determine the effect of Peptide 1 and Peptide 7. Blood samples obtained from the tail cut for glucose determination were detected with an ACCU-CHEK™ glucometer (Roche, ACCU-CHEK® Active), and insulin levels were determined with Rat/Mouse Insulin Elisa kit (Millipore, Billerica, Mass. USA). For the OGTT, after the measurement of the basal glucose concentration (T=−30 min), mice received an oral glucose challenge at 2 g/kg and glucose values were determined by glucometer at 0, 15, 30, 60, 90 and 120 min.

[3] = system: ARIP cells; assay: ARIP cell proliferation (BrdU ELISA / CellTiter-Glo); type: cell-based, rat; conditions: 100 nM peptide; compared to INGAP scrambled peptide and INGAP-PP; FIG. 1
Method: To measure cell proliferation, a bromodeoxyuridine (BrdU) ELISA assay was performed. Briefly, ARIP cells (ATCC (American Type Culture Collection), Manassas Va. USA), a rat pancreatic ductal cell line, were cultured in F-12K medium (Gibco-BRL, Gaithersburg, Md., USA) containing 10% fetal bovine serum (FBS; HyClone, Thermo Fisher Scientific Inc.; Waltham Mass. USA), 100 μg/ml streptomycin and 100 μg/ml penicillin in a cell incubator. ARIP cells were seeded into 96-well culture plates at 8000 or 0 (as blank control) cells/well in a volume of 50 μl cell culture medium and incubated overnight for the following experiments. On the second day, after replacing the medium with medium without serum, 50 μl serum-free cell culture medium containing test peptides at a series concentrations (final concentrations were 10 μM, 5 μM, 1 μM, 500 nM, 100 nM, 50 nM, 10 nM and 1 nM) were added to seeded cells. Medium without compound was added to negative control and background control wells. […] The absorbance at 450 nm (reference wavelength 690 nm) on an EnVision™ plate reader (Perkin Elmer, Boston Mass.) within 5 min after adding the stop solution was measured.
To test for cell viability, a CellTiter-Glo™ (CTG) assay (Promega, Madison Wis.) was performed. […] Luminescence signal was quantified on an EnVision™ plate reader after a 10 minute incubation at room temperature.

[4] = system: normal C57BL/6J mice; assay: Induction of small β-cell clusters in normal C57BL/6J mice (islet size distribution); type: in vivo, mouse
Method: After a 1-week acclimation, C57BL/6J female mice were randomly divided into 4 groups. The two control groups received either 10 mL/kg sterile normal saline (n=4) or scrambled peptide (Peptide 3, 25 mg/kg) (n=5) via subcutaneous injection for 10 days. The other two groups received INGAP-PP (Peptide 1) or INGAP-PP analog Peptide 7 at a dose of 25 mg/kg per day respectively (n=7 per group) for the same period. Body weight and 6 hour fasting blood glucose were measured before treatment and after the last dosing of treatment. Plasma and pancreatic insulin were also measured at the end of the study. On day 11, the pancreas was removed from each animal, cleared of fat and lymph nodes, weighed, and fixed in 10% neutral buffered formalin (NBF) for no longer than 24 hours before processing for morphometric analysis.
Immunohistochemistry analysis was used to determine pancreatic islet size distribution.

Q: For “H-IGLHDPSHGTLPAGS-OH [Peptide 7, H-IGLHDPSHGTLPAGS-OH]”, which “stability in culture medium” value [1] is on record?
A: The value was “significantly more stable than INGAP-PP peptide in culture medium”.

Q: What about the “effect on body weight or pancreas weight” value ([2]; 5 mg/kg or 25 mg/kg for 20 days) of the same substance?
A: Its value is “did not affect body weight or pancreas weight”.

Q: What about the “plasma insulin levels vs saline controls” value ([2]; 25 mg/kg dose group, end of the 20-day period, FIG. 6B) of the same substance?
A: Its value is “significantly different from saline controls and almost restored to the level of the naive group”.

Q: And the “glucose tolerance (OGTT, AUC of glucose)” value ([2]; FIG. 6C)?
A: Its value is “improved glucose tolerance”.

Q: What about the “blood glucose levels vs saline control group” value ([2]; day 21 of treatment, FIG. 6A) of the same substance?
A: The value was “Significant differences in blood glucose levels”.

Q: And the “percentage increase in cell number (ARIP cell proliferation)” value [3]?
A: The value was “significantly higher percentage increase in cell number”.

Q: And the “number of islets, islet size (Log [μm^2]) ranging from 2.1 to 0.7” value ([4]; normal female C57BL/6J mice, 25 mg/kg per day, 10 days, versus naive/control group, FIG. 7)?
A: The value was “numbers increased significantly”.

Q: What about the “effect on body weight, blood glucose, plasma insulin, pancreas insulin, pancreas weight” value ([4]; normal mice, 25 mg/kg per day sc for 10 days, compared to saline group) of the same substance?
A: The value was “did not affect body weight, blood glucose, plasma insulin, pancreas insulin, or pancreas weight”.
